{
  "source": "patent US8163743B2",
  "about": "“4-carboxamide indazole derivatives useful as inhibitors of PI3-kinases” (GlaxoGroupLimited, priority 2008, dated 2012)",
  "key": {"[1]": {"system": "IFN-γ or IL-5 production in human PBMC", "assay": "Inhibition of Interferon-Gamma (IFN-γ) or IL-5 production in human PBMC assay (MSD technology)", "assay_type": "cell-based", "conditions": "human PBMC assay or a similar assay; CYTOSTIM stimulation, 20 hours; read-out: mean pIC50 (converted)", "protocol": "Inhibition of Interferon-Gamma (IFN-γ) or IL-5 Production in Human PBMC (Peripheral Blood Mononuclear Cell) Assay (MSD Technology)\nA 96-well plate (96 MicroWell™ Plates Nunclon™—High Flange Design, Fisher Scientific UK, Loughborough, UK) is prepared by initially adding to column 1 ca. 10 mM of test compound dissolved in DMSO. […] The compound is further diluted with DMSO into columns 2 to 9 by 8 successive 4-fold dilutions using the Biomek® 2000 Laboratory Automation Workstation (Beckman Coulter, Inc., Fullerton, Calif.). Column 10 is used as a DMSO negative control (High Signal, 0% response), whilst column 11, which contains 10 mM of the pan-PI3K inhibitor wortmannin, is used as a positive control (Low Signal, 100% response). About 1 μl of compound is transferred to the compound plate using the Biomek® FX.\nPBMC cells (peripheral blood mononuclear cells) are prepared from heparinised human blood (using 1% v/v Heparin Sodium 10001 U/ml Endotoxin Free, Leo Laboratories Ltd., Dublin. Ireland, Cat No: PL0043/0149) from normal volunteers using the Accuspin™ System-Histopaque®-1077 essentially (Sigma-Aldrich Company Ltd., Gillingham Dorset, UK). About 20 ml of blood is overlaid onto 15 ml Histopaque® in Accuspin™ tubes. The tube is then centrifuged at about 800 g for ca. 20 minutes. The cells are collected from the interface, washed by centrifugation (ca. 1300 g, ca. 10 minutes) and resuspended in assay medium (Low endotoxin RPMI1640 medium, Cat No: 31870-025, Invitrogen Corporation Invitrogen Ltd, Paisley, UK) containing 10% foetal calf serum (Invitrogen Corporation, Cat No: CT2507), 2 mM L-glutamine (Invitrogen Corporation, Cat No: 25030024), 10 U/ml penicillin and 10 μg/ml streptomycin (Invitrogen Corporation, Cat No: 15140-122). Viable cells are counted by trypan blue staining and diluted to 6.6×10^5 viable cells/ml. About 150 μl of diluted cells are then added to the compound plate and incubated 37 degrees C. for 1 hour prior to addition of 50 μl of 0.125% (v/v) CYTOSTIM (Cat No: 130-092-173, Miltenyi Biotec Ltd., Bisley, Surrey, UK) diluted in assay medium. The assay plate is then incubated at 37° C., 5% CO2, for 20 hours. The supernatant is removed and the concentrations of IFN-γ and IL-5 are determined by electrochemiluminescence assay using the Meso Scale Discovery (MSD) technology (Meso Scale Discovery, Gaithersburg, Md., USA) as described below.\nSupernants were assayed using MSD (Meso Scale Discovery) technology using either the ultra sensitive IFN-γ single plex or the IFN-γ/IL-5 multiplex 96-well plates (MA6000). For the IL-5/IFNg multiplex, Human Serum Cytokine Assay Diluent (25 μl) is added to the plates precoated with anti-cytokine antibody and then incubated for 24 hours at 4° C. to prevent non-specific binding. This blocking step is not required for the Ultrasensitive IFN-γ plates. About 25 μl of supernatant from the PBMC plate is then transferred from columns 1-11 to columns 1-11 of the MSD plate using the Biomek FX. About 25 μl of standard (IFN-γ Cat No. Calibrator C0AE, IL-5 Cat No. Calibrator C01AJ, Meso Scale Discovery) are added to column 12 of the MSD plate to generate a standard calibration curve (about 0 to 10000 pg/ml final). Plates are washed after 2 hours shaking with a Skanwasher 300 version B (Skatron Instruments AS. PO Box 8, N-3401 Lier, Norway). […] About 150 μl of Read Buffer T (2×) is added to the plates, which are then read on a MSD Sector 6000. […]"}, "CK2 protein kinase": {"target": "CK2 protein kinase (Homo sapiens, UniProt P68400)", "sequence (P68400 whole entry)": "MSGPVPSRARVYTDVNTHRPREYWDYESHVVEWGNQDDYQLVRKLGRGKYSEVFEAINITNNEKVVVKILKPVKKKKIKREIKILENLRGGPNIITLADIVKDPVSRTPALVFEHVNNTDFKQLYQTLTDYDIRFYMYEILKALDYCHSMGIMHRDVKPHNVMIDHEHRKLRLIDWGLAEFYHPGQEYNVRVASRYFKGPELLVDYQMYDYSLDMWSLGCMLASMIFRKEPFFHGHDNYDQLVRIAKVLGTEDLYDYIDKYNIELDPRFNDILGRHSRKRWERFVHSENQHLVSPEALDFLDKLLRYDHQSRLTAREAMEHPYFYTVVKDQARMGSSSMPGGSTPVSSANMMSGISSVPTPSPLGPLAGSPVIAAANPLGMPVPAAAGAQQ", "conditions": "background, literature; cited from earlier work"}},
  "note": "pIC50: −log10 of the molar value.",
  "data": [
    {"smiles": "COc1ncc(-c2cc(NC(=O)c3csc(CN4C[C@@H](C)O[C@@H](C)C4)n3)c3cn[nH]c3c2)cc1NS(=O)(=O)CC(F)(F)F", "note": "[2-{[(2R,6S)-2,6-dimethyl-4-morpholinyl]methyl}-N-[6-(6-(methyloxy)-5-{[(2,2,2-trifluoroethyl)sulfonyl]amino}-3-pyridinyl)-1H-indazol-4-yl]-1,3-thiazole-4-carboxamide]", "values": [
      {"measurement": "IC50", "setting": "[1]", "value": "≤ 10", "unit": "µM"}
    ]},
    {"smiles": "COc1ncc(-c2cc(NC(=O)c3csc(CN4C[C@@H](C)O[C@@H](C)C4)n3)c3cnn(C)c3c2)cc1NS(C)(=O)=O", "note": "[2-{[(2R,6S)-2,6-dimethyl-4-morpholinyl]methyl}-N-(1-methyl-6-{6-(methyloxy)-5-[(methylsulfonyl)amino]-3-pyridinyl}-1H-indazol-4-yl)-1,3-thiazole-4-carboxamide]", "values": [
      {"measurement": "IC50", "setting": "[1]", "value": "≤ 10", "unit": "µM"}
    ]},
    {"smiles": "COc1ncc(-c2cc(NC(=O)c3csc(CN4C[C@@H](C)O[C@@H](C)C4)n3)c3cn[nH]c3c2)cc1NS(=O)(=O)c1ccc(F)cc1F", "note": "[Example 94, N-{6-[5-{[(2,4-Difluorophenyl)sulfonyl]amino}-6-(methyloxy)-3-pyridinyl]-1H-indazol-4-yl}-2-{[(2R,6S)-2,6-dimethyl-4-morpholinyl]methyl}-1,3-thiazole-4-carboxamide]", "values": [
      {"measurement": "melting point", "value": "211 to 212", "unit": "°C"}
    ]},
    {"smiles": "COc1ncc(-c2cc(NC(=O)c3csc(CN4C[C@@H](C)O[C@@H](C)C4)n3)c3cn[nH]c3c2)cc1NS(=O)(=O)c1ccc(F)cc1F", "note": "[N-{6-[5-{[(2,4-difluorophenyl)sulfonyl]amino}-6-(methyloxy)-3-pyridinyl]-1H-indazol-4-yl}-2-{[(2R,6S)-2,6-dimethyl-4-morpholinyl]methyl}-1,3-thiazole-4-carboxamide]", "values": [
      {"measurement": "IC50", "setting": "[1]", "value": "≤ 10", "unit": "µM"}
    ]},
    {"smiles": "O=c1cc(N2CCOCC2)oc2c(-c3ccccc3)cccc12", "note": "[LY294002]", "values": [
      {"measurement": "pIC50", "setting": "CK2 protein kinase", "value": "5.00 to 5.30"}
    ]},
    {"smiles": "COc1ccccc1S(=O)(=O)Nc1cc(-c2cc(NC(=O)c3csc(CN4C[C@@H](C)O[C@@H](C)C4)n3)c3cn[nH]c3c2)cnc1OC", "note": "[2-{[(2R,6S)-2,6-dimethyl-4-morpholinyl]methyl}-N-{6-[6-(methyloxy)-5-({[2-(methyloxy)phenyl]sulfonyl}amino)-3-pyridinyl]-1H-indazol-4-yl}-1,3-thiazole-4-carboxamide]", "values": [
      {"measurement": "IC50", "setting": "[1]", "value": "≤ 10", "unit": "µM"}
    ]},
    {"smiles": "COc1ncc(-c2cc(NC(=O)c3csc(CN4C[C@@H](C)O[C@@H](C)C4)n3)c3cn[nH]c3c2)cc1NS(C)(=O)=O", "note": "[2-{[(2R,6S)-2,6-dimethyl-4-morpholinyl]methyl}-N-(6-{6-(methyloxy)-5-[(methylsulfonyl)amino]-3-pyridinyl}-1H-indazol-4-yl)-1,3-thiazole-4-carboxamide]", "values": [
      {"measurement": "IC50", "setting": "[1]", "value": "≤ 10", "unit": "µM"}
    ]}
  ]
}
